Assay results taken from patent US8709405B2, “Cancer vaccines containing epitopes of oncofetal antigen” (South Alabama Medical Science Foundation, priority 2002, dated 2014).

Assays:
Format in all cases: cell-based, BALB/c mouse
[1] = system: iLRP-specific T cell clone L1 (CD8 Ts); assay: BUdR incorporation ELISA proliferation assay, Ts clone L1; conditions: Table 3; for BUdR Incorporation (A450) of iLRP-specific T cell clone L1 cells, Expt. 1 / BUdR Incorporation (A450) of iLRP-specific T cell clone L1 cells, Expt. 2: 100 ng/well stimulant with irradiated syngeneic spleen cells (APC), 48 h culture
Method: (§1) The epitopes recognized by 15 iLRP-reactive T cell clones derived from either naive BALB/c mice, BALB/c mice bearing MCA1315 fibrosarcoma tumors, or from BALB/c mice immunized with either 1 or 10 μg of recombinant murine iLRP were determined by testing the proliferation of those clones to overlapping peptides spanning the region of the iLRP molecule recognized by each clone in the presence of IL-2, as a growth factor for T cells and irradiated, T cell-depleted, syngeneic spleen cells as antigen-presenting cells. Proliferation was measured through ELISA determination of 5-bromodeoxyuridine incorporation during culture.
(§2) More specifically, the epitope-specificity of the iLRP-specific Th1, Tc, and Ts clones was determined using a modification of the 5′-bromodeoxyuridine (BudR) incorporation ELISA technique described in Rohrer, J. W., A. L. Barsoum, D. L. Dyess, J. A. Tucker, and J. H. Coggin, Jr. 1999. Human breast carcinoma patients develop clonable oncofetal antigen-specific effector and regulatory T lymphocytes. J. Immunol. 162:6880, using the Biotrak BUdR incorporation assay (Amersham, Arlington Heights, Ill.). Briefly, at the time of restimulation of the clones, a portion of the cloned T cells were assayed for proliferation to antigen-presenting cells (APC) and various iLRP peptides. The assay was performed with 10,000 viable cloned T cells/well plus […] irradiated syngeneic spleen cells (APC) plus 100 ng/well of intact iLRP/OFA protein or the various truncated iLRP/OFA proteins or the various iLRP/OFA peptides in Iscove's modified Dulbecco's medium (IMDM) containing 2 mM L-glutamine, 100 U/ml of penicillin G, 100 μg of streptomycin sulfate, and 10% fetal calf serum. The cells were cultured for a total of 48 hours. After 24 hours of culture 5′-bromodeoxyuridine was added to a final concentration of 10 μM/well. The cells were cultured for another 24 hours. At the end of the last 24 hours of incubation, the plates were centrifuged at 300×g for 10 min, and the labelling medium removed. The cells were then dried at 60° C. for 1 hour. The cells were fixed with an ethanol fixative provided in the Biotrak kit for 30 min at room temperature, fixative was removed, and the wells were coated with blocking buffer (1% protein in 50 mM Tris-HCl, 150 mM NaCl, pH 7.4) and incubated for 30 min at room temperature. The blocking buffer was removed, 100 μl of 1:100 diluted peroxidase-labelled anti-BUdR antibody was added to each well and the plates were incubated for 90 min at room temperature. The antibody solution was removed, and the wells washed three times with 300 μl/well of wash buffer. 200 μl of 3,3′, 5,5′-tetramethylbenzidine in […] DMSO was added to each well and the plate was covered and incubated at room temperature while oscillating gently for 5-30 min. When the required color density was reached, the reaction was stopped by adding 25 μl of 1M sulfuric acid to each well and the plate read on a microELISA reader at 450 nm.
(§3) Each time the assay was done, clones were stimulated by APC and intact iLRP/OFA as a positive control. Cloned T cells were also cultured in the presence of only APC in IMDM or in the presence of APC and an iLRP/OFA peptide or truncated iLRP/OFA known not to stimulate the clones being tested. These served as negative controls. In wells where BUdR was incorporated (the iLRP/OFA stimulates proliferation of the T cells), the A450 was at least 10-fold and often approximately 50-fold higher than the negative controls. Because the Ts cells always presented with apparently low affinity T cell antigen receptors, their BUdR incorporation gave A450 values about 10 times higher than the negative controls (e.g., about 0.2 vs. 0.02), but about 5 times lower than the Th1 or Tc clones (e.g., usually about 0.9).
Overlapping 12mer peptides of the first 25 amino acids of murine iLRP were produced. Thus, peptides 1-4 corresponded to amino acid residues 1-12, 5-16, 9-20 and 17-28 of murine iLRP. […]

[2] = system: iLRP-specific T cell clone H3 (Th1); assay: BUdR incorporation ELISA proliferation assay, Th1 clone H3; conditions: for BudR Incorporation (A450), T cell clone H3 (Th1): Table 8, overlapping 12-mers of iLRP 136-166, 100 U/ml IL-2; for Response of Th1 clone H3 (in words): text on Table 8
Method: as §1, §2
as §3, with “0.9). […]” for “0.9).”

[3] = system: iLRP-specific T cell clone H2 (Ts); assay: BUdR incorporation ELISA proliferation assay, Ts clone H2; conditions: for BudR Incorporation (A450), T cell clone H2 (Ts): Table 8, overlapping 12-mers of iLRP 136-166, 100 U/ml IL-2; for Proliferation of Ts clone H2 (in words): text on Table 8
Method: as §1, §2
as §3, with “0.9). […]” for “0.9).”

[4] = system: iLRP-specific T cell clone H4 (Ts); assay: BUdR incorporation ELISA proliferation assay, Ts clone H4; conditions: for BudR Incorporation (A450), T cell clone H4 (Ts): Table 8, overlapping 12-mers of iLRP 136-166, 100 U/ml IL-2; for Proliferation of Ts clone H4 (in words): text on Table 8
Method: as §1, §2
as §3, with “0.9). […]” for “0.9).”

[5] = system: iLRP-specific T cell clone L4 (Tc); assay: BUdR incorporation ELISA proliferation assay, Tc clone L4; conditions: for BudR Incorporation (A450), T cell clone L4 (Tc): Table 8, overlapping 12-mers of iLRP 136-166, 100 U/ml IL-2; for Proliferation of Tc clone L4 (in words): text on Table 8
Method: as §1, §2
as §3, with “0.9). […]” for “0.9).”

[6] = system: iLRP-specific T cell clone L5 (Tc); assay: BUdR incorporation ELISA proliferation assay, Tc clone L5; conditions: for BudR Incorporation (A450), T cell clone L5 (Tc): Table 8, overlapping 12-mers of iLRP 136-166, 100 U/ml IL-2; for Proliferative response of Tc clone L5 (in words): text on Table 8
Method: as §1, §2
as §3, with “0.9). […]” for “0.9).”

[7] = system: iLRP-specific Th1, Tc, and Ts clones; assay: BUdR incorporation proliferation assay, comparison across iLRP-specific T cell clone types; conditions: Table 14; type of T cell clone reactive with the 12-mer
Method: as §1, §2, §3
Determination of the portion of the truncated iLRP/OFA protein or peptide reacted to by a given clone was done by analysis of the proliferation pattern to the various truncated proteins or peptides. […]

[8] = Table 7, stimulated by a.a.'s 136-166 sequence or controls

| Substance | BUdR Incorporation (A450) of iLRP-specific T cell clone L1 cells, Expt. 1 [1] | BUdR Incorporation (A450) of iLRP-specific T cell clone L1 cells, Expt. 2 [1] | BudR Incorporation (A450), T cell clone H3 (Th1) [2] | BudR Incorporation (A450), T cell clone H2 (Ts) [3] | BudR Incorporation (A450), T cell clone H4 (Ts) [4] | BudR Incorporation (A450), T cell clone L4 (Tc) [5] | BudR Incorporation (A450), T cell clone L5 (Tc) [6] | Reactive T cell clones [7] | further results |
| --- | --- | --- | --- | --- | --- | --- | --- | --- | --- |
| QMKEEDVLKLLAA [Peptide 3] | .09 A450 | .07 A450 | – | – | – | – | – | – | Proliferation of clone L1 (in words) [1]: does react somewhat |
| YVDIAIPCNNKG [Peptide 31-6] | – | – | .03 A450 | .015 A450 | .016 A450 | .90 A450 | .015 A450 | Tc | Proliferation of Tc clone L4 (in words) [5]: proliferated to peptides 31-5 and 31-6 equally |
| CNTDSPLRYVDI [Peptide 31-4] | – | – | .81 A450 | .016 A450 | .016 A450 | .023 A450 | .89 A450 | Tc & TH1 | Response of Th1 clone H3 (in words) [2]: slightly lower response; Proliferative response of Tc clone L5 (in words) [6]: equal proliferative response |
| LDVLQMKEEDVL [Peptide 2] | .017 A450 | .019 A450 | – | – | – | – | – | – | – |
| KLLAAGTHLGGT [Peptide 4] | .28 A450 | .27 A450 | – | – | – | – | – | – | Proliferation of clone L1 (in words) [1]: proliferates to a peptide contained almost entirely in peptide 4 |
| MSGALDVLQMKE [Peptide 1] | .018 A450 | .020 A450 | – | – | – | – | – | – | – |
| VNLPTIALCNTD [Peptide 31-2] | – | – | .015 A450 | .22 A450 | .24 A450 | .018 A450 | .016 A450 | Ts | Proliferation of Ts clone H2 (in words) [3]: proliferated equally; Proliferation of Ts clone H4 (in words) [4]: proliferated equally |
| TIALCNTDSPLR [Peptide 31-3] | – | – | .016 A450 | .015 A450 | .017 A450 | .016 A450 | .90 A450 | Tc | Proliferative response of Tc clone L5 (in words) [6]: equal proliferative response |
| iLRP truncated protein 13: truncated iLRP protein, a.a.'s 242-295; negative control | .016 A450 | .014 A450 | .015 A450 | .017 A450 | .018 A450 | .017 A450 | .016 A450 | – | BUdR incorporation (A450), clone H3 (Th1) [2, 8]: .017 A450; BUdR incorporation (A450), clone H2 (Ts) [3, 8]: .015 A450; BUdR incorporation (A450), clone H4 (Ts) [4, 8]: .016 A450; BUdR incorporation (A450), clone L4 (Tc) [5, 8]: .017 A450; BUdR incorporation (A450), clone L5 (Tc) [6, 8]: .015 A450 |
| SPLRYVDIAIPC [Peptide 31-5] | – | – | .95 A450 | .016 A450 | .016 A450 | .91 A450 | .024 A450 | Tc & TH1 | Response of Th1 clone H3 (in words) [2]: strongest response; Proliferation of Tc clone L4 (in words) [5]: proliferated to peptides 31-5 and 31-6 equally |
| EASYVNLPTIAL [Peptide 31-1] | – | – | .016 A450 | .23 A450 | .22 A450 | .015 A450 | .017 A450 | Ts | Proliferation of Ts clone H2 (in words) [3]: proliferated equally; Proliferation of Ts clone H4 (in words) [4]: proliferated equally |
